pIC50: −log10 of the molar value.
Assays:
MCF-7 = assay: Growth inhibition of cell lines treated with 2X-121; assay type: cell-based; conditions: Homo sapiens, MCF7; cell line MCF-7, origin Breast; read-out: Measured growth inhibition IC50
IM-9 = assay: as above; assay type: cell-based; conditions: Homo sapiens; cell line IM-9, origin B lymphoblast; read-out: Measured growth inhibition IC50
HCC1806 = assay: as above; assay type: cell-based; conditions: Homo sapiens; cell line HCC1806, origin Breast; read-out: Measured growth inhibition IC50
HEC-6 = assay: as above; assay type: cell-based; conditions: cell line HEC-6, origin Endometrial; read-out: Measured growth inhibition IC50
MDA-MB-468 = assay: as above; assay type: cell-based; conditions: Homo sapiens; cell line MDA-MB-468, origin Breast; read-out: Measured growth inhibition IC50
MC/CAR = assay: as above; assay type: cell-based; conditions: cell line MC/CAR, origin Myeloma; read-out: Measured growth inhibition IC50
U266 = assay: as above; assay type: cell-based; conditions: Homo sapiens, U-266; cell line U266, origin Myeloma; read-out: Measured growth inhibition IC50
SNU-423 = assay: as above; assay type: cell-based; conditions: Homo sapiens; cell line SNU-423, origin HCC; read-out: Measured growth inhibition IC50
[1] = in vivo; cited from earlier work
SNG-II = assay: Growth inhibition of cell lines treated with 2X-121; assay type: cell-based; conditions: cell line SNG-II, origin Endometrial; read-out: Measured growth inhibition IC50
NCEB-1 = assay: as above; assay type: cell-based; conditions: NCEB1; cell line NCEB-1, origin MCL; read-out: Measured growth inhibition IC50
HCC70 = assay: as above; assay type: cell-based; conditions: Homo sapiens; cell line HCC70, origin Breast; read-out: Measured growth inhibition IC50
MV-4-11 = assay: as above; assay type: cell-based; conditions: Homo sapiens, MV4-11; cell line MV-4-11, origin AML; read-out: Measured growth inhibition IC50
DU145 = assay: as above; assay type: cell-based; conditions: Homo sapiens, DU-145; cell line DU145, origin Prostate; read-out: Measured growth inhibition IC50
MDA-MB-157 = assay: as above; assay type: cell-based; conditions: Homo sapiens; cell line MDA-MB-157, origin Breast; read-out: Measured growth inhibition IC50
HCT-116 = assay: as above; assay type: cell-based; conditions: Homo sapiens; cell line HCT-116, origin Colon; read-out: Measured growth inhibition IC50
SR = assay: as above; assay type: cell-based; conditions: Homo sapiens; cell line SR, origin B cell lymphoma; read-out: Measured growth inhibition IC50
Mino = assay: as above; assay type: cell-based; conditions: Homo sapiens; cell line Mino, origin MCL; read-out: Measured growth inhibition IC50
HEC-50B = assay: as above; assay type: cell-based; conditions: cell line HEC-50B, origin Endometrial; read-out: Measured growth inhibition IC50
RPMI-8226 = assay: as above; assay type: cell-based; conditions: Homo sapiens; cell line RPMI-8226, origin Myeloma; read-out: Measured growth inhibition IC50
HepG2 = assay: as above; assay type: cell-based; conditions: Homo sapiens; cell line HepG2, origin HCC; read-out: Measured growth inhibition IC50
HEC-108 = assay: as above; assay type: cell-based; conditions: cell line HEC-108, origin Endometrial; read-out: Measured growth inhibition IC50
DB = assay: as above; assay type: cell-based; conditions: Homo sapiens; cell line DB, origin DLBCL (GC); read-out: Measured growth inhibition IC50
T47D = assay: as above; assay type: cell-based; conditions: Homo sapiens; cell line T47D, origin Breast; read-out: Measured growth inhibition IC50
HEC-1A = assay: as above; assay type: cell-based; conditions: Homo sapiens; cell line HEC-1A, origin Endometrial; read-out: Measured growth inhibition IC50
P-glycoprotein = P-glycoprotein (Homo sapiens, UniProt P08183); conditions: cited from earlier work
NCI-H82 = assay: Growth inhibition of cell lines treated with 2X-121; assay type: cell-based; conditions: Homo sapiens; cell line NCI-H82, origin SCLC; read-out: Measured growth inhibition IC50
NCI-H211 = assay: as above; assay type: cell-based; conditions: Homo sapiens; cell line NCI-H211, origin SCLC; read-out: Measured growth inhibition IC50
KLE = assay: as above; assay type: cell-based; conditions: Homo sapiens; cell line KLE, origin Endometrial; read-out: Measured growth inhibition IC50
MDA-MB-436 = assay: as above; assay type: cell-based; conditions: Homo sapiens; cell line MDA-MB-436, origin Breast; read-out: Measured growth inhibition IC50
NCI-H209 = assay: as above; assay type: cell-based; conditions: Homo sapiens; cell line NCI-H209, origin SCLC; read-out: Measured growth inhibition IC50
M14 = assay: as above; assay type: cell-based; conditions: Homo sapiens; cell line M14, origin Melanoma; read-out: Measured growth inhibition IC50
HCT-15 = assay: as above; assay type: cell-based; conditions: Homo sapiens; cell line HCT-15, origin Colon; read-out: Measured growth inhibition IC50
NCI-H146 = assay: as above; assay type: cell-based; conditions: Homo sapiens; cell line NCI-H146, origin SCLC; read-out: Measured growth inhibition IC50

Chain of P-glycoprotein (P08183 whole entry): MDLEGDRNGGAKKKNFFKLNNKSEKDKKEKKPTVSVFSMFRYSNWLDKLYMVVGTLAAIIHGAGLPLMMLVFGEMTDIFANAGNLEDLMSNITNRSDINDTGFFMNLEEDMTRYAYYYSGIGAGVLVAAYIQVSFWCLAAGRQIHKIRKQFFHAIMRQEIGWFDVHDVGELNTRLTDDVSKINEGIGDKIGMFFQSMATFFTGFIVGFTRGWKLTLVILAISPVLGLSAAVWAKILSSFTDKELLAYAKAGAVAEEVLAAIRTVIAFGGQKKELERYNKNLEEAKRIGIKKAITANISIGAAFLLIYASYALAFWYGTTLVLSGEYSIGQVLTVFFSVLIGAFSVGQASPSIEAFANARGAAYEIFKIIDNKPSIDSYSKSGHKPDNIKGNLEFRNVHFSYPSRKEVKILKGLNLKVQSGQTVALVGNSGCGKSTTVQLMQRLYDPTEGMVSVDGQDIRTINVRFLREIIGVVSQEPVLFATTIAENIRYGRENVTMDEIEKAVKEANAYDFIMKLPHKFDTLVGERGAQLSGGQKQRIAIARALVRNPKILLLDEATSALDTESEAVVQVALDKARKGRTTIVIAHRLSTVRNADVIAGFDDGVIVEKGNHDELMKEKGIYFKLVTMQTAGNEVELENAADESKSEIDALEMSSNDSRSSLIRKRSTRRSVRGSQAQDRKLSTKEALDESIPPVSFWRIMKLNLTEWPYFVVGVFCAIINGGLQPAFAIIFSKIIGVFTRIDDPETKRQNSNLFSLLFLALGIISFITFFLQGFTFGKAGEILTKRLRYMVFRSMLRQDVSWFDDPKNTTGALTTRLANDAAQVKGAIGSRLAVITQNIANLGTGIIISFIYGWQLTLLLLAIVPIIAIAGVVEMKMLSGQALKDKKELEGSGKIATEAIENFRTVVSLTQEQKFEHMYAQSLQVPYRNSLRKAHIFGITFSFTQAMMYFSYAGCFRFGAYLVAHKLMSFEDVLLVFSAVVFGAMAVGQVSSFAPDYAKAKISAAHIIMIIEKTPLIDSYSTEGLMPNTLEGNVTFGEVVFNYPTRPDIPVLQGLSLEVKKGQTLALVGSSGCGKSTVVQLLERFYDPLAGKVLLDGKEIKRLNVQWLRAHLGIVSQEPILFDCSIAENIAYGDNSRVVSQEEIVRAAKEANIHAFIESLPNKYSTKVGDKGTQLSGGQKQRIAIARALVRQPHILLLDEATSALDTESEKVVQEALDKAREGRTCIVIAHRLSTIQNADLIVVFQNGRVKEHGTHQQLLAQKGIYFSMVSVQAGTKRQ

`O=c1[nH]nc2c3c(cccc13)N=C(CN1Cc3ccccc3C1)N2` [2X-121, 8-(isoindolin-2-ylmethyl)-2,9-dihydro-3H-pyridazino[3,4,5-de]quinazolin-3-one] gave a pIC50 (MCF-7) of 5.72, a pIC50 (IM-9) of 5.68 and a pIC50 (HCC1806) of 5.74. For the same compound, the pIC50 (HEC-6) was 5.73, the pIC50 (MDA-MB-468) was 5.60 and the pIC50 (MC/CAR) was 5.64. For the same compound, the pIC50 (U266) was 5.17, the pIC50 (SNU-423) was 4.72 and the brain penetration [1] was “brain penetrable”. The pIC50 (SNG-II) was 5.28, the pIC50 (NCEB-1) was 5.28 and the pIC50 (HCC70) was 5.03. The pIC50 (MV-4-11) was 6.02, the pIC50 (DU145) was 5.74 and the pIC50 (MDA-MB-157) was 5.17. The pIC50 (HCT-116) was 5.77, the pIC50 (SR) was 6.59 and the pIC50 (Mino) was 5.47. For the same compound, the pIC50 (HEC-50B) was 5.46, the pIC50 (RPMI-8226) was 5.03 and the pIC50 (HepG2) was 5.42. For the same compound, the pIC50 (HEC-108) was 5.22, the pIC50 (DB) was 5.80 and the pIC50 (T47D) was 5.11. For the same compound, the pIC50 (HEC-1A) was 5.53, the “substrate for P-glycoprotein” value (P-glycoprotein) was “not a substrate for P-glycoprotein” and the pIC50 (NCI-H82) was 6.33. For the same compound, the pIC50 (NCI-H211) was 6.32, the pIC50 (KLE) was 5.59 and the pIC50 (MDA-MB-436) was 6.72. For the same compound, the pIC50 (NCI-H209) was 6.21, the pIC50 (M14) was 5.17 and the pIC50 (HCT-15) was 5.66. It also gave a pIC50 (NCI-H146) of 6.03.
